# Test results published in patent US20040077080A1, “Compositions and methods for induction of proteins involved in xenobiotic metabolism” (priority 2000, published 2004).
# “Also recorded” adds a separate entry of the source.
# T1: CAR (hCAR) (Homo sapiens), Q14994-2
# T1 sequence: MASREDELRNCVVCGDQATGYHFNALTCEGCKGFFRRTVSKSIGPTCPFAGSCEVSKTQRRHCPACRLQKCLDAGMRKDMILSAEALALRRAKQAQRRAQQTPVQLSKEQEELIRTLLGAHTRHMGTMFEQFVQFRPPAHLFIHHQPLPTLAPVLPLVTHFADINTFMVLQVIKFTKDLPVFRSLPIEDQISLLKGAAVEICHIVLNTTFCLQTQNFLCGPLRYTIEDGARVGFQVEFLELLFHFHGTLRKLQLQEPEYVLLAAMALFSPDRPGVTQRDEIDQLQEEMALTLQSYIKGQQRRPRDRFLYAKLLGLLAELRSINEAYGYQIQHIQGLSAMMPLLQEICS
# B1: CYP2C19 F4 fragment (dsDNA)
# DNA 1: AACCAAACTCTTCTGACCCCCAATCT
# DNA 2: AGATTGGGGGTCAGAAGAGTTTGGTT
# What was measured:
# CYP3A4 mRNA (PXR) = assay: Northern blot of CYP3A4 in stable cells overexpressing PXR (Hepg-PXR); conditions: stable cells that overexpress PXR
# Protocol: FIG. 29 depicts CYP3A4 gene regulation in response to PXR ligands by the stably transfected cell line Hepg-PXR (HepG2 cells overexpressing PXR). Total RNA was prepared from Hepg-PXR cells chemically treated as indicated. The RNA blot was hybridized with ^32P-labeled cDNA for CYP3A4 (upper panel).
# Northern blot analysis. Total RNA from primary human hepatocytes and from a PXR stable cell line was isolated using Trizol reagent (Invitrogen, Carlsbad, Calif.) and quantified by spectrophotometric analysis at 260 nanometers. […] The blot was subsequently washed and re-hybridized to an 18S rRNA probe to verify that equal amounts of total RNA had been applied to each lane.
# [1] = tested on: PXR / mdr1(dr4) response element; assay: Hep-PXR/Pgp-Luc stable cell luciferase assay
# Protocol: (§1) FIG. 35 depicts dose-response behavior to various PXR activators in stable cell lines overexpressing PXR and harboring DR4 response element. FIG. 35A: Results are shown for the stable cell line Hep-PXR/PgpLuc. FIG. 35B: Results are shown for the stable cell line Caco-PXR/PgpLuc.
# (§2) Cells were exposed to the test compounds for 48 hours at the concentrations indicated.
# FIG. 36 depicts the effect of environmental and botanical chemicals on luciferase activity in the stable cell line Hep-PXR/PgpLuc. Cells were inoculated into 96-well plates at a density of 2×10^4 cells per well. After overnight recovery, cells were treated with the test compounds at the concentrations indicated for 48 hours.
# (§3) Establishment of stable transformants containing both PXR and reporter plasmid and development of high throughput bioassay for PXR-dependent transactivation: The stable transformants Hep-PXR/mdr1(dr4)-Luc and Caco-PXR/mdr1(dr4)-Luc cell lines were generated from the parental cell lines HepG-PXR and Caco-PXR, respectively, according to the following procedure. The parental cell lines HepG-PXR and Caco-PXR, which overexpress PXR, were stably transfected with the luciferase reporter plasmid mdr1(dr4)-Luc. The transfected cells were cultured in DMEM (HepG-PXR cells) or in IMEM (Caco-PXR cells), both media supplemented with 10% fetal bovine serum and neomycin (700 micrograms per milliliter).
# (§4) For the induction assay, stable transformants were seeded in 96-wells plates at a density of 1×10^4 cells per well and allowed to recover overnight. Plates were treated with test compounds at varying concentrations, using 3 replicates per dose. After 48 hours of exposure to the test compound, cells were washed with phosphate buffered saline, lysis buffer was applied to the wells, and luciferase substrate added. Following 10 minutes for light adaptation, luminescence was monitored according to the manufacturer's instructions (Packard kit, Biomed).
# [2] = tested on: PXR / mdr1(dr4) response element; assay: Caco-PXR/Pgp-Luc stable cell luciferase assay
# Protocol: as §1, §2, §3, §4
# hPXR / CYP3A4 enhancer = conditions: colony 1F; 72 hours; omeprazole 100 micromolar, PCN 50 micromolar, TCDD 1 micromolar
# Excerpt: (§6) HepG2 cells were harvested at approximately 50% confluency and seeded in six well dishes at 5×10^5 cells per well in DMEM containing 10% fetal bovine serum (FBS). […] The control cells were those that received plasmid DNA containing pGL3 promoter and pIRES(neo) or pGL3promoter and hPXR in pIRES(neo). After sixteen hours of exposure to the precipitated DNA, the culture medium was removed, cells washed twice with DMEM, and fresh media containing 10% FBS added. After an additional twenty four hours, media was replaced with that containing 400 micrograms per milliliter of G418. Media was changed every two days for three weeks until small colonies were visible. Single colonies were selected and transferred to twenty four well Costar plates (VWR, Westchester, Pa.). Each of the twenty four wells contained the same media and cells were grown to confluency with media changes every three days. Confluent wells were trypsinized and cells transferred into six well plates and upon reaching confluency therein, cells were further transferred to T75 flasks.
# (§7) Luciferase assays were performed as specified by the manufacture (LucLite system, Packard Instrument, Meriden, Conn.). Activity was determined using the Packard LumniCount luminometer and results expressed as relative light units or fold increase above control (DMSO treated cells).
# (§8) Cells were seeded in T75 flasks and grown to confluency. […]
# CYP1A1 mRNA [3] = assay: Northern blot of CYP1A1 mRNA in primary cultures of human hepatocytes (Example II); conditions: primary human hepatocytes
# Protocol: Six well plates containing human hepatocytes were obtained from the Liver Tissue Procurement and Distribution System (LTPADS, University of Minnesota, Minneapolis, Minn.). […] All inducers were dissolved in DMSO and added to media at a 0.1% final concentration of this reagent. After treatment, media was removed and cells harvested for RNA isolation.
# (§5) Total RNA from hepatocytes or HepG2 cells was isolated using Trizol™ reagent (Gibco BRL Products, Gaithersburg, Md.) and quantified by measuring absorbance at 260 nm; purity was assessed by determining the 260/280 nm ratio. […] A cDNA probe for human 18S RNA probe (Ambion, Austin Tex.) was used to normalize the amount of RNA loaded in each lane. […] Autoradiographs of Northern blots were quantified by densitometry using a Model GS-670 Imaging Densitometer equipped with Molecular Analysis/Mac version 1.1.1. Image Analysis software (BioRad laboratories, Hercules, Calif.) or by scaning autoradiograms with a ScanMaker II (Microtek) and digitized with Un-Scan-It software (Silk Scientific, Orem Utah). Exposure times used were in the linear range of the film, Kodak XAR-5.
# CYP1A1 mRNA [4] = assay: Northern blot of CYP1A1 mRNA in HepG2 cells; conditions: HepG2 cells; mean of two determinations
# Protocol: HepG2 cells were obtained from American Type Culture Collection (ATCC). Cells were grown in DMEM (Gibco/BRL). Twenty-four hours after cells were plated and grown to confluency, they were treated with one of the bioflavonoids, TCDD, or beta-naphthoflavone (Sigma). All inducers were dissolved in DMSO and this solvent was added to control cells at 0.1%.
# as §5
# CYP1A1 mRNA [5] = assay: Northern blot of CYP1A1 in primary human hepatocytes (Example V); conditions: primary hepatocytes, 24 hours; TCDD 10 nanomoles per liter, 3-MC 0.5 nanomoles per liter, omeprazole 100, chrysin 25, curcumin 50, resveratrol 25, DMBA 20, 2-AAF 100 micromoles per liter
# Excerpt: The isolated RNA was subjected to Northern blot analysis.
# [6] = tested on: human CYP1A1 promoter (Ah receptor); assay: 101L cell luciferase assay (HepG2 with human CYP1A1 promoter-luciferase), 96-well; conditions: 101L cells; for fold increase in luciferase activity, dose response of known CYP1A1 inducers: benzanthracene and omeprazole maximum at 100 micromolar, TCDD at 2 nanomolar
# Protocol: Cells were initially seeded in flasks containing media without G418. After an overnight incubation the cultures were changed into media containing G418 for antibiotic selection. After three to five days, cells were removed from flasks by trypsinization and replated on either a twenty-four-well plate at a density of 3.5×10^5 cells per well, or a ninety-six-well plate at a density of 7.5×10^4 cells per well, in DMEM media that was replaced with that containing 0.1% FBS and without G418 or indicator (phenol red). The next day, media containing 0.1% FBS and G418 was added to the cultures. […] For the antagonist experiments, cells were co-treated with a flavonoid and two nanomolar TCDD. All inducers were dissolved in DMSO and this reagent was added to control cells at 0.1%. The cells were treated with varous doses and times (six to eighteen hours). After treatment, the media containing the compound was removed by aspiration and replaced with one-hundred microliters per well of DMEM for direct analysis of luciferase activity. Experiments were performed on 101L cells from frozen stocks on the initial derivation and the passage number was limited to thirty.
# Luciferase assays were performed as specified by the manufacturer (LucLite system, Packard Instrument, Meriden, Conn.). Activity was determined using a Packard LumiCount luminometer and results expressed as relative light units or fold increase above control (DMSO treated cells.
# [7] = tested on: AhR (dioxin response elements); assay: DRE12-6 luciferase assay (HepG2 with dioxin response elements); conditions: DRE12-6 cells, 28 hours
# Protocol: (§9) FIG. 25A: DRE12-6 cells were treated for 28 hours with the indicated concentrations of phytochemicals. FIG. 25B: DRE12-6 cells were treated with the indicated chemicals for 3 hours prior to co-treatment with 2,3,7,8-tetrachlorodibenzo-p-dioxin (TCDD) for 28 hours.
# (§10) Chemical treatment was followed by cell lysis and luciferase measurement.
# (§11) FIG. 26A: DRE12-6 cells were inoculated into a 96-well plate (2×10^4 cells per well) a day prior to treatment and treated for 28 hours with the indicated concentrations of the environmental contaminants (PAHs, PAH derivatives, PCBs, or pesticide derivatives). FIG. 26B: DRE12-6 cells were treated with the indicated chemicals for 3 hours prior to co-treatment with 2,3,7,8-tetrachlorodibenzo-p-dioxin (TCDD) for 28 hours.
# (§12) The luciferase-SV40 promoter vector, with the three copies of the dioxin response elements, was transfected into HepG2 cells, which were put under neomycin selection to yield the stable cell line DRE12-6, for detection of AhR-dependent transactivation.
# (§13) Luciferase assay: Luciferase assays using the LucLite system (Packard Instrument Co., Meriden, Conn.) were performed according to the manufacturer's instructions. Results were expressed as relative light units or fold induction, relative to DMSO-treated control cells. The data represent the mean±standard deviation of experiments performed in duplicate.
# CYP3A4 enhancer (PXRE) = assay: Luciferase reporter assay, HepG2 cells stably transformed with CYP3A4 enhancer (colony 13); conditions: 72 hours, omeprazole 100, clotrimazole 10, RU486 10, PCN 50, TCDD 1 micromolar
# Excerpt: as §6, §7, §8
# CYP2C19 (hCAR) = assay: CYP2C19 induction in HepG2 cell lines stably transfected with hCAR
# CYP3A4 mRNA [8] = conditions: human, hepatocytes
# Protocol: FIG. 28B: Human primary hepatocytes were exposed for 48 hours to commercial health supplements including grapeseed, garlic, kava-kava, and ginseng.
# Total RNA was prepared from the treated cells, subjected to electrophoresis on a 1% formaldehyde gel, and transferred onto a nylon membrane.
# CYP3A4 mRNA [9] = conditions: human, hepatocytes; remark: listed apart in the source
# Protocol: FIG. 13 depicts the effect of various CYP3A4 inducers on CYP3A4 expression in human hepatocytes. […] Total RNA (ten micrograms) was subjected to northern blot analysis and developed with a specific cDNA probe to CYP3A4 as described in the Examples.
# Human hepatocytes were treated with various CYP3A4 inducers for forty eight hours, harvested, and RNA and cell homogenates isolated.
# [10] = tested on: AhR (dioxin response elements); assay: in vitro; conditions: human, fold induction of luciferase activity above DMSO, DRE12-6 cells, 28 hours; TCDD 10 nanomoles per liter, omeprazole 25, 2-AAF 100, DMBA 20 micromoles per liter
# Protocol: as §9, §10, §11, §12, §13
# [11] = tested on: T1, CAR (hCAR) (Homo sapiens), Q14994-2; assay: cell_activity; conditions: Caco-2 luciferase, fold above no receptor
# [12] = tested on: PXR / CYP3A4 response elements; assay: DPX2 (Hepg-hPXR/3A4-Luc) luciferase assay; conditions: DPX2 cells, kava-kava 100 micrograms per milliliter, chrysin 25 micromoles per liter
# Protocol: Compounds tested included known PXR ligands and conventional drugs (FIG. 30A), environmental contaminants (FIG. 30B), and herbal supplements (FIG. 30C). DPX2 cells were cultured with DMEM supplemented with 10% fetal bovine serum and neomycin. Cells were inoculated into 96-well plate at a density of 1×10^4 cells per well the day before treatment.
# 2. […] In addition, a distal enhancer module, XREM, was amplified by PCR using the sense primer
# The resulting amplified XREM fragment was ligated upstream of PXRE containing a 3A4 promoter, into a luciferase vector.
# A neomycin resistance gene was generated by PCR amplification using the pcDNA3.1 plasmid (Invitrogen, Carlsbad, Calif.), which encodes a neomycin resistant gene, as a DNA template. The sense primer had the sequence […] Amplification was followed by SalI digestion of the PCR product, and the resulting fragment ligated to the SalI-digested PGL3-promoter plasmid, which contains luciferase as a reporter gene. […] The CYP3A4 cell line DPX2 (Hepg-hPXR/3A4-Luc) was established by double transfection with the PXR expression plasmid and the luciferase plasmid containing CYP3A4 PXR response element under selection with both neomycin and hygromycin.
# [13] = target: CAR/RXR heterodimer (hCAR/hRXRa) (Homo sapiens, UniProt Q14994-2;P19793 Q14994-2:1-348,P19793:1-462); assay: EMSA; conditions: tags: TNT coupled transcription/translation (Promega); label: 32P
# CAR/RXR heterodimer (hCAR/hRXRa), sequence (P19793 whole entry, one chain of several): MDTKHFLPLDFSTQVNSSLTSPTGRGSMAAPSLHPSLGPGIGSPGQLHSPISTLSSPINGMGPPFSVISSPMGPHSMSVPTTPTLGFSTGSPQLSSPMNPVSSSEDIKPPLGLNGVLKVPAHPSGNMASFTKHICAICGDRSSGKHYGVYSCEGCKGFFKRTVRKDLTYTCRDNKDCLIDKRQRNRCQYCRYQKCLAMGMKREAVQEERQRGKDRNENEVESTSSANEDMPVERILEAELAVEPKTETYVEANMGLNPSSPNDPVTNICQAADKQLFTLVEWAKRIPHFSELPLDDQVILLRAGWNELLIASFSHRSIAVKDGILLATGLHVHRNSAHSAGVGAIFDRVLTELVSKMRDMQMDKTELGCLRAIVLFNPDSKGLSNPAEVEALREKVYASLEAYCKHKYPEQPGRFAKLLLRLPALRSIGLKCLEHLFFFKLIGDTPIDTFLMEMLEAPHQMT
# [14] = TCDD 10 nanomoles per liter, omeprazole 25, 2-AAF 100, DMBA 20 micromoles per liter
molecule,measurement,setting,value
CC[C@H](C)C(=O)O[C@H]1CCC=C2C=C[C@H](C)[C@H](CC[C@@H]3C[C@@H](O)CC(=O)O3)[C@H]21 [mevastatin],CYP3A4 induction by Northern blot (in words),CYP3A4 mRNA (PXR),efficiently activated
same,dose dependence of luciferase induction (in words),[1],dose-dependent luciferase induction
same,dose dependence of luciferase induction (in words),[2],dose-dependent luciferase induction
same,strength of luciferase induction (in words),[2],strongly induce
Clc1cc2c(cc1Cl)Oc1cc(Cl)c(Cl)cc1O2 [TCDD],"fold increase in luciferase activity above DMSO, single concentrations (FIG. 14)",hPXR / CYP3A4 enhancer,less than two
same,"CYP1A1 mRNA level Subject A (%), normalized to TCDD induction",CYP1A1 mRNA [3]; 24 hours,100%
same,"CYP1A1 mRNA level Subject B (%), normalized to TCDD induction",CYP1A1 mRNA [3]; 24 hours,100%
same,"CYP1A1 mRNA level Subject D (%), normalized to TCDD induction",CYP1A1 mRNA [3]; 24 hours,100%
same,"HepG2 CYP1A1 mRNA (%), normalized to TCDD induction",CYP1A1 mRNA [4],100%
same,CYP1A1 induction by Northern blot (in words),CYP1A1 mRNA [5],maximum induction
same,"fold increase in luciferase activity, dose response of known CYP1A1 inducers",[6],twelve to thirty-five; also recorded: twenty-two
same,AhR-mediated luciferase induction (in words),[7],dose-dependent increase
same,fold induction of luciferase activity above DMSO,[7]; [14],12.99±0.64 fold
same,fold induction at 28 h,"[7]; human, fold induction of luciferase activity above DMSO, TCDD 10 nanomoles per liter, omeprazole 25, 2-AAF 100, DMBA 20 micromoles per liter",20
same,"fold increase in luciferase activity above DMSO, single concentrations (FIG. 15)",CYP3A4 enhancer (PXRE),less than one
"Clc1ccc(-c2nc3sccn3c2C=NOCc2ccc(Cl)c(Cl)c2)cc1 [CITCO, 6-(4-chlorophenyl)imidazo[2,1-b][1,3]thiazole-5-carbaldehyde-O-(3,4-dichlorbenzyl)oxime]",induction of HepG2 CYP2C19 (in words),CYP2C19 (hCAR),induce HepG2 CYP2C19
CCC1(c2ccccc2)C(=O)NC(=O)NC1=O [phenobarbital],CYP3A4 mRNA by Northern blot (in words),CYP3A4 mRNA [8],increased CYP3A4 gene expression
same,fold increase in CYP3A4 mRNA,CYP3A4 mRNA [9],3.8 fold
same,induction of HepG2 CYP2C19 (in words),CYP2C19 (hCAR),induce HepG2 CYP2C19
c1ccc2cc3c(ccc4ccccc43)cc2c1 [benzanthracene],"CYP1A1 mRNA level Subject A (%), normalized to TCDD induction",CYP1A1 mRNA [3]; 24 hours,50%
same,"CYP1A1 mRNA level Subject B (%), normalized to TCDD induction",CYP1A1 mRNA [3]; 24 hours,50%
same,"CYP1A1 mRNA level Subject C (%), normalized to benzanthracene induction","CYP1A1 mRNA [3]; Subject C, 24 hours",100%
same,"CYP1A1 mRNA level Subject D (%), normalized to TCDD induction",CYP1A1 mRNA [3]; 24 hours,52%
same,"CYP1A1 mRNA, % of that observed with TCDD, all subjects",CYP1A1 mRNA [3]; 100 micromolar benzanthracene,50%
same,fold induction,[10],28.7 ± 1.65
same,maximum CYP1A1 mediated luciferase activity,"[6]; 96-well plate format, 50 micromolar benzanthracene",33 fold
same,"fold increase in luciferase activity, dose response of known CYP1A1 inducers",[6],twelve to thirty-five
CYP2B6 PBREM reporter,activity,[11],6.16 fold
"CC(=O)Nc1ccc2c(c1)Cc1ccccc1-2 [2-AAF, 2-acetylaminofluorene]",strength of luciferase induction (in words),"[1]; Hep-PXR/PgpLuc cells, 48 hours, omeprazole 100 micromoles per liter versus rifampicin 10 micromoles per liter",strongly induced
same,fold induction of luciferase activity above DMSO,[12]; 48 hours,24.7 fold
same,fold induction at 48 h,"[12]; human, fold induction of luciferase activity above DMSO",24.8
same,CYP1A1 induction by Northern blot (in words),CYP1A1 mRNA [5],increased CYP1A1 expression slightly
same,fold induction of luciferase activity above DMSO,[7]; [14],10.21±0.36 fold
same,fold induction of luciferase activity above DMSO,"[7]; TCDD 10 nanomoles per liter, omeprazole 25, 2-AAF 100, DMBA 20 micromoles per liter, listed as 2-acetylaminofluorene",4.8 fold
B1,binding result,[13],binds
